Several values for one entry are separate records, joined by “and”; a condition that tells them apart may be missing. Equal values may be shown once. Read-outs that look alike come from different tables or passages of the source. Starred links: 1 amine or outer side, 2 acyl side, 3 side chain; linkers in the order of their positions; H or OH if unused. Non-standard residues stand in square brackets, D forms with d. Residues, ends and D or L forms follow the SMILES beside them. *: point of attachment. X2 = CCCCC[C@H](O*)C(=O)OCc1ccccc1; X1 = CCCCC[C@H](O[*:1])C(=O)[*:2]; Ahp(2) = CCCCC[C@H](N)C(=O)O; dNMeA = CN[C@H](C)C(=O)O; Boc = CC(C)(C)OC(=O)*; OBn = c1ccc(CO*)cc1
Columns and labels:
PAMPA [1] = settings: UV detection, initial concentration 500 uM
PAMPA [2] = settings: UV detection
in vitro = settings: PAMPA, Papp
[3] = initial concentration 500 uM, UV detection
[4] = UV detection
[5] = PAMPA, 500 uM
[6] = calculated using Supplement Equation 1, UV detection
[7] = Acceptor Concentration (uM) / [row 1]
[8] = Acceptor Concentration (uM) / [row 2]
[9] = Acceptor Concentration (uM) / [row 3]
[10] = Acceptor Concentration (uM) / [row 4]
[11] = Acceptor Concentration (uM) / [row 5]
[12] = Acceptor Concentration (uM) / [row 6]
[13] = Acceptor Concentration (uM) / [row 7]
[14] = Acceptor Concentration (uM) / [row 8]
[15] = Acceptor Concentration (uM) / [row 9]
[16] = Acceptor Concentration (uM) / [row 10]

SMILES	Acceptor Concentration (PAMPA [1]; [7])	Acceptor Concentration (PAMPA [1]; [8])	Acceptor Concentration (PAMPA [1]; [9])	Acceptor Concentration (PAMPA [1]; [10])	Acceptor Concentration (PAMPA [1]; [11])	Acceptor Concentration (PAMPA [1]; [12])	Acceptor Concentration (PAMPA [1]; [13])	Acceptor Concentration (PAMPA [1]; [14])	Acceptor Concentration (PAMPA [1]; [15])	Acceptor Concentration (PAMPA [1]; [16])	Papp (PAMPA [2]; Papp (x 10^-6 cm/s) / [row 1])	Papp (PAMPA [2]; Papp (x 10^-6 cm/s) / [row 2])	Papp (PAMPA [2]; Papp (x 10^-6 cm/s) / [row 3])	Papp (PAMPA [2]; Papp (x 10^-6 cm/s) / [row 4])	Papp (PAMPA [2]; Papp (x 10^-6 cm/s) / [row 5])	Papp (PAMPA [2]; Papp (x 10^-6 cm/s) / [row 6])	Papp (PAMPA [2]; Papp (x 10^-6 cm/s) / [row 7])	Papp (PAMPA [2]; Papp (x 10^-6 cm/s) / [row 8])	Papp (PAMPA [2]; Papp (x 10^-6 cm/s) / [row 9])	Papp (PAMPA [2]; Papp (x 10^-6 cm/s) / [row 10])	other results
CCCCC[C@H](NC(=O)[C@@H](C)N(C)C(=O)OC(C)(C)C)C(=O)N(C)[C@H](C)C(=O)O[C@@H](CCCCC)C(=O)N(C)[C@H](C)C(=O)O[C@@H](CCCCC)C(=O)N(C)[C@H](C)C(=O)O[C@@H](CCCCC)C(=O)OCc1ccccc1 [Compound L2.1] (Boc-[dNMeA][Ahp(2)][dNMeA][X1][dNMeA][X1][dNMeA]-X2)	83.2 µM	94.6 µM	90.8 µM	98.2 µM	93.2 µM	76.9 µM	74.6 µM	97.5 µM	85.3 µM	83.9 µM	3.57 ×10⁻⁶ cm/s	4.24 ×10⁻⁶ cm/s	3.98 ×10⁻⁶ cm/s	4.55 ×10⁻⁶ cm/s	4.01 ×10⁻⁶ cm/s	3.22 ×10⁻⁶ cm/s	3.32 ×10⁻⁶ cm/s	4.45 ×10⁻⁶ cm/s	4.33 ×10⁻⁶ cm/s	4.04 ×10⁻⁶ cm/s	Papp at 500 uM (in vitro): 3.97 ± 0.46 ×10⁻⁶ cm/s; donor concentration after incubation ([3]; Well 1 / [donor], Well 1): 402 µM and 418 µM; donor concentration after incubation ([3]; Well 2 / [donor], Well 2): 377 µM and 393 µM; donor concentration after incubation ([3]; Well 3 / [donor], Well 3): 388 µM and 368 µM; donor concentration after incubation ([3]; Well 4 / [donor], Well 4): 363 µM and 335 µM; donor concentration after incubation ([3]; Well 5 / [donor], Well 5): 395 µM and 356 µM; % recovery ([4]; Well 1 / %R, Well 1): 97% and 99%; % recovery ([4]; Well 2 / %R, Well 2): 94%; % recovery ([4]; Well 3 / %R, Well 3): 96%; % recovery ([4]; Well 4 / %R, Well 4): 92% and 84%; % recovery ([4]; Well 5 / %R, Well 5): 98% and 88%; LogPapp [5]: -5.40 ± 0.05; Δ % diffusion [5]: ↑19%; %T ([6]; Well 1 / %T, Well 1): 0.47% and 0.5%; %T ([6]; Well 2 / %T, Well 2): 0.47% and 0.52%; %T ([6]; Well 3 / %T, Well 3): 0.49%; %T ([6]; Well 4 / %T, Well 4): 0.48% and 0.5%; %T ([6]; Well 5 / %T, Well 5): 0.49% and 0.5%
CCCCC[C@H](NC(=O)[C@@H](C)N(C)C(=O)[C@H](CCCCC)NC(=O)[C@@H](C)N(C)C(=O)[C@H](CCCCC)NC(=O)[C@@H](C)N(C)C(=O)[C@H](CCCCC)NC(=O)[C@@H](C)N(C)C(=O)OC(C)(C)C)C(=O)OCc1ccccc1 [Compound L2.5] (Boc-[dNMeA][Ahp(2)][dNMeA][Ahp(2)][dNMeA][Ahp(2)][dNMeA][Ahp(2)]-OBn)	55.5 µM	54.4 µM	52.1 µM	59 µM	58.4 µM	67.8 µM	57.4 µM	59.8 µM	61.8 µM	56.8 µM	2.47 ×10⁻⁶ cm/s	2.25 ×10⁻⁶ cm/s	2.11 ×10⁻⁶ cm/s	2.43 ×10⁻⁶ cm/s	2.68 ×10⁻⁶ cm/s	3.13 ×10⁻⁶ cm/s	2.4 ×10⁻⁶ cm/s	2.43 ×10⁻⁶ cm/s	2.64 ×10⁻⁶ cm/s	2.27 ×10⁻⁶ cm/s	donor concentration after incubation ([3]; Well 1 / [donor], Well 1): 362 µM and 345 µM; donor concentration after incubation ([3]; Well 2 / [donor], Well 2): 391 µM and 386 µM; donor concentration after incubation ([3]; Well 3 / [donor], Well 3): 400 µM and 397 µM; donor concentration after incubation ([3]; Well 4 / [donor], Well 4): 391 µM and 376 µM; donor concentration after incubation ([3]; Well 5 / [donor], Well 5): 351 µM and 405 µM; % recovery ([4]; Well 1 / %R, Well 1): 84% and 83%; % recovery ([4]; Well 2 / %R, Well 2): 89%; % recovery ([4]; Well 3 / %R, Well 3): 90% and 91%; % recovery ([4]; Well 4 / %R, Well 4): 90%; % recovery ([4]; Well 5 / %R, Well 5): 82% and 92%; Acceptor Concentration, Ave [5]: 58.3 µM; Δ % diffusion [5]: ↑6%; %T ([6]; Well 1 / %T, Well 1): 0.61% and 0.63%; %T ([6]; Well 2 / %T, Well 2): 0.61% and 0.6%; %T ([6]; Well 3 / %T, Well 3): 0.58% and 0.63%; %T ([6]; Well 4 / %T, Well 4): 0.6% and 0.62%; %T ([6]; Well 5 / %T, Well 5): 0.61% and 0.64%

— PMC11995216, “End-to-End Backbone Cyclization Enhances Passive Permeability of bRo5 Oligomeric Depsipeptides with Nonlinear Size Dependence” (ACS Medicinal Chemistry Letters, 2025)
